# Test results published in patent publication US20020137929A1, “1 - (3-heterocyclylphenyl) isothiourea, -isourea, -guanidine and -amidine herbicidal agents” (Intellectual Property Department, BASF Aktiengesellschaft, priority 1998, published 2002).
# How the values were obtained:
# SETVI (Foxtail, Green) = assay: Postemergence herbicidal evaluation; format: in vivo, Setaria viridis; conditions: postemergence
# Outline: (§1)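 Rate range approx. 0.0156–0.500 kg/ha. Foliar application at 40 psi to ~2-week seedlings; surfactant 0.5% TWEEN 20 in 50/50 acetone/water. Evaluation 4–5 wk post-treatment by 0–9 visual injury score, means of replicate tests.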
# [1] = test system: SAGPY (Arrowhead (Pygmaea)); assay: Preemergence weed control under flooded paddy conditions; format: in vivo, Sagittaria pygmaea; conditions: rated 3-4 weeks after treatment
# Outline: (§2)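 Flooded-pot preemergence screen with silt loam and seeds in the upper 0.5 cm. Dose about 0.0313 to 0.500 kg/ha, delivered into flood water; visual 0-9 score after 3 to 4 weeks.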
# GALAP (Galium) [2] = assay: Preemergence herbicidal evaluation; format: in vivo, Galium aparine; conditions: rated 4-5 weeks after treatment
# Outline: (§3)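 Preemergence soil application of compound, sprayed in aqueous acetone at rates equivalent to about 0.0156 to 0.500 kg per hectare onto freshly sown cups. Plant response was judged by eye on a 0-9 scale four to five weeks later.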
# CYPIR (Rice Flatsedge) = assay: Preemergence weed control under flooded paddy conditions; format: in vivo, Cyperus iria; conditions: rated 3-4 weeks after treatment
# Outline: as §2
# CYPSE (Flatsedge) [3] = assay: as above; format: in vivo, Cyperus serotinus; conditions: rated 3-4 weeks after treatment
# Outline: as §2
# ZEAMX (Corn, Field) = assay: Preemergence herbicidal evaluation; format: in vivo, Zea mays; conditions: rated 4-5 weeks after treatment
# Outline: as §3
# GALAP (Galium) [4] = assay: Postemergence herbicidal evaluation; format: in vivo, Galium aparine; conditions: postemergence
# Outline: as §1
# [5] = test system: CHEAL (Lambsquarters, Common); assay: Postemergence herbicidal evaluation; format: in vivo, Chenopodium album; conditions: postemergence
# Outline: as §1
# CASOB (Sicklepod) [6] = assay: Postemergence herbicidal evaluation; format: in vivo, Cassia obtusifolia; conditions: postemergence
# Outline: as §1
# AMBEL (Ragweed, Common) = assay: Postemergence herbicidal evaluation; format: in vivo, Ambrosia artemisifolia; conditions: postemergence
# Outline: as §1
# CASOB (Sicklepod) [7] = assay: Preemergence herbicidal evaluation; format: in vivo, Cassia obtusifolia; conditions: rated 4-5 weeks after treatment
# Outline: as §3
# ECHCG (Barnyardgrass) = assay: Postemergence herbicidal evaluation; format: in vivo, Echinochloa crus-galli; conditions: postemergence
# Outline: as §1
# ORYSAT (Rice, Tebonnet) = assay: Postemergence herbicidal evaluation; format: in vivo, Oryza sativa, (L.) Tebonnet; conditions: postemergence
# Outline: as §1
# CYPSE (Flatsedge) [8] = assay: Postemergence weed control under flooded paddy conditions; format: in vivo, Cyperus serotinus; conditions: postemergence weeds, 3-4 weeks after treatment
# Outline: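 Weeds 3 to 5 cm tall and rice seedlings at the 1.5 to 2.5 leaf stage were flooded, with water held 1.5 to 3 cm above the soil. Compounds in 50/50 v/v aqueous/acetone went into the flood water at about 0.0313 to 0.500 kg/ha. Visual 0-9 ratings versus control were made 3 to 4 weeks later.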
# [9] = test system: GLXMAW (Soybean, Williams); assay: Postemergence herbicidal evaluation; format: in vivo, Glycine max, (L.) Merr. cv Williams; conditions: postemergence
# Outline: as §1
smiles,measurement,setting,value
"COC(=O)CN1C(=O)CSC1=Nc1cc(-n2c(=O)cc(C(F)(F)F)n(C)c2=O)c(F)cc1Cl [Compound 17, Methyl 2-{{2-chloro-5-[3,6-dihydro-3-methyl-2,6-dioxo-4-(trifluoromethyl)-1(2H)-pyrimidinyl]-4-fluorophenyl}imino}-4-oxo-3-thiazolidineacetate]",SETVI herbicidal rating,"SETVI (Foxtail, Green); rate 0.0156 kg/ha",2.0
same,SETVI herbicidal rating,"SETVI (Foxtail, Green); rate 0.0313 kg/ha",2.5
same,SETVI herbicidal rating,"SETVI (Foxtail, Green); rate 0.0625 kg/ha",4.0
same,SETVI herbicidal rating,"SETVI (Foxtail, Green); rate 0.1250 kg/ha",5.5
same,Herbicidal rating SAGPY,[1]; 0.0313 kg/ha,0.0
same,Herbicidal rating SAGPY,[1]; 0.0625 kg/ha,0.0
same,Herbicidal rating SAGPY,[1]; 0.1250 kg/ha,4.0
same,Herbicidal rating SAGPY,[1]; 0.2500 kg/ha,4.0
same,GALAP preemergence herbicidal rating,GALAP (Galium) [2]; rate 0.0156 kg/ha,0.0
same,GALAP preemergence herbicidal rating,GALAP (Galium) [2]; rate 0.0313 kg/ha,0.0
same,GALAP preemergence herbicidal rating,GALAP (Galium) [2]; rate 0.0625 kg/ha,0.0
same,GALAP preemergence herbicidal rating,GALAP (Galium) [2]; rate 0.1250 kg/ha,1.0
same,GALAP preemergence herbicidal rating,GALAP (Galium) [2]; rate 0.2500 kg/ha,9.0
same,GALAP preemergence herbicidal rating,GALAP (Galium) [2]; rate 0.5000 kg/ha,9.0
same,Herbicidal rating CYPIR,CYPIR (Rice Flatsedge); 0.0313 kg/ha,0.0
same,Herbicidal rating CYPIR,CYPIR (Rice Flatsedge); 0.0625 kg/ha,0.0
same,Herbicidal rating CYPIR,CYPIR (Rice Flatsedge); 0.1250 kg/ha,6.0
same,Herbicidal rating CYPIR,CYPIR (Rice Flatsedge); 0.2500 kg/ha,9.0
same,Herbicidal rating CYPSE,CYPSE (Flatsedge) [3]; 0.0313 kg/ha,9.0
same,Herbicidal rating CYPSE,CYPSE (Flatsedge) [3]; 0.0625 kg/ha,9.0
same,Herbicidal rating CYPSE,CYPSE (Flatsedge) [3]; 0.1250 kg/ha,9.0
same,Herbicidal rating CYPSE,CYPSE (Flatsedge) [3]; 0.2500 kg/ha,9.0
same,ZEAMX preemergence herbicidal rating,"ZEAMX (Corn, Field); rate 0.0156 kg/ha",0.0
same,ZEAMX preemergence herbicidal rating,"ZEAMX (Corn, Field); rate 0.0313 kg/ha",0.3
same,ZEAMX preemergence herbicidal rating,"ZEAMX (Corn, Field); rate 0.0625 kg/ha",1.0
same,ZEAMX preemergence herbicidal rating,"ZEAMX (Corn, Field); rate 0.1250 kg/ha",1.0
same,ZEAMX preemergence herbicidal rating,"ZEAMX (Corn, Field); rate 0.2500 kg/ha",3.3
same,ZEAMX preemergence herbicidal rating,"ZEAMX (Corn, Field); rate 0.5000 kg/ha",5.5
same,GALAP herbicidal rating,GALAP (Galium) [4]; rate 0.0156 kg/ha,1.5
same,GALAP herbicidal rating,GALAP (Galium) [4]; rate 0.0313 kg/ha,3.5
same,GALAP herbicidal rating,GALAP (Galium) [4]; rate 0.0625 kg/ha,5.5
same,GALAP herbicidal rating,GALAP (Galium) [4]; rate 0.1250 kg/ha,6.0
same,CHEAL herbicidal rating,[5]; rate 0.0156 kg/ha,2.5
same,CHEAL herbicidal rating,[5]; rate 0.0313 kg/ha,3.0
same,CHEAL herbicidal rating,[5]; rate 0.0625 kg/ha,4.0
same,CHEAL herbicidal rating,[5]; rate 0.1250 kg/ha,8.0
same,CASOB herbicidal rating,CASOB (Sicklepod) [6]; rate 0.0156 kg/ha,0.0
same,CASOB herbicidal rating,CASOB (Sicklepod) [6]; rate 0.0313 kg/ha,1.0
same,CASOB herbicidal rating,CASOB (Sicklepod) [6]; rate 0.0625 kg/ha,1.0
same,CASOB herbicidal rating,CASOB (Sicklepod) [6]; rate 0.1250 kg/ha,5.5
same,AMBEL herbicidal rating,"AMBEL (Ragweed, Common); rate 0.0156 kg/ha",3.0
same,AMBEL herbicidal rating,"AMBEL (Ragweed, Common); rate 0.0313 kg/ha",6.0
same,AMBEL herbicidal rating,"AMBEL (Ragweed, Common); rate 0.0625 kg/ha",6.0
same,AMBEL herbicidal rating,"AMBEL (Ragweed, Common); rate 0.1250 kg/ha",9.0
same,CASOB preemergence herbicidal rating,CASOB (Sicklepod) [7]; rate 0.0156 kg/ha,0.0
same,CASOB preemergence herbicidal rating,CASOB (Sicklepod) [7]; rate 0.0313 kg/ha,0.7
same,CASOB preemergence herbicidal rating,CASOB (Sicklepod) [7]; rate 0.0625 kg/ha,0.7
same,CASOB preemergence herbicidal rating,CASOB (Sicklepod) [7]; rate 0.1250 kg/ha,0.0
same,CASOB preemergence herbicidal rating,CASOB (Sicklepod) [7]; rate 0.2500 kg/ha,3.7
same,CASOB preemergence herbicidal rating,CASOB (Sicklepod) [7]; rate 0.5000 kg/ha,7.0
same,ECHCG herbicidal rating,ECHCG (Barnyardgrass); rate 0.0156 kg/ha,0.0
same,ECHCG herbicidal rating,ECHCG (Barnyardgrass); rate 0.0313 kg/ha,0.0
same,ECHCG herbicidal rating,ECHCG (Barnyardgrass); rate 0.0625 kg/ha,2.5
same,ECHCG herbicidal rating,ECHCG (Barnyardgrass); rate 0.1250 kg/ha,8.0
same,ORYSAT herbicidal rating,"ORYSAT (Rice, Tebonnet); rate 0.0156 kg/ha",1.8
same,ORYSAT herbicidal rating,"ORYSAT (Rice, Tebonnet); rate 0.0313 kg/ha",3.0
same,ORYSAT herbicidal rating,"ORYSAT (Rice, Tebonnet); rate 0.0625 kg/ha",3.5
same,ORYSAT herbicidal rating,"ORYSAT (Rice, Tebonnet); rate 0.1250 kg/ha",5.0
same,Herbicidal rating CYPSE,CYPSE (Flatsedge) [8]; rate 0.0313 kg/ha,9.0
same,Herbicidal rating CYPSE,CYPSE (Flatsedge) [8]; rate 0.0625 kg/ha,9.0
same,Herbicidal rating CYPSE,CYPSE (Flatsedge) [8]; rate 0.1250 kg/ha,9.0
same,Herbicidal rating CYPSE,CYPSE (Flatsedge) [8]; rate 0.2500 kg/ha,9.0
same,GLXMAW herbicidal rating,[9]; rate 0.0156 kg/ha,4.3
same,GLXMAW herbicidal rating,[9]; rate 0.0313 kg/ha,5.5
same,GLXMAW herbicidal rating,[9]; rate 0.0625 kg/ha,5.8
same,GLXMAW herbicidal rating,[9]; rate 0.1250 kg/ha,7.5
